Results taken from US20240279232A1, “USE OF SUBSTITUTED 5-(4-METHYL-6-PHENYL-4H-BENZO[F]IMIDAZO[1,5-A][1,4] DIAZEPIN-3-YL)-1,2,4-O[…] THE TREATMENT OF INFLAMMATORY CONDITIONS” (priority 2021, published 2024).

Assays:
Mouse microglia [1] = assay: NO production (Griess assay), LPS/IFNγ-activated mouse microglia; assay type: cell-based; conditions: for inhibition at 50 µM / inhibition at 10 µM: Mus musculus, Microglia, 24 h
Description: (§1) Next, a library of GABAAR ligands was investigated to identify compounds that reduce the production of NO as a marker of anti-inflammatory activity. […] NO was quantified with a Greiss assay. Cell viability was determined with CellTiter-Glo.
Cell culture. A) HMC3 Microglia (CRL-3304) were maintained in treated cell culture flasks (Nunc, 156472) with EMEM (Corning, 10010CV) supplemented with 10% heat-inactivated FBS (Corning, 35011CV) and 100 U/mL penicillin and 100 μg/mL streptomycin (Hyclone, SV30010). Cultures were maintained at 37° C. and 5% CO2. When cells reached a density of 7×10^4 cells/mL, cultures were passaged with 0.25% Trypsin (Corning, 25-053-CI) and resuspended to a density no lower than 10,000 cells/mL. B) Human and mouse microglia cell lines were a gift from Dr. David Alvarez-Carbonell at Case Western Reserve University (Cleveland, OH). Microglia were cultured in cell culture treated flasks (Nunc, 156472) with DME/F12 media (Hyclone, SH30023.01) supplemented with 10% heat-inactivated FBS (Corning, 35011CV), 100 U/mL penicillin/100 μg/mL streptomycin (Hyclone, SV30010), and Normocin (Invivogen, ant-nr). Cultures were maintained at 37° C. and 5% CO2. […] Cultures were maintained at 37° C. and 5% CO2. Cells were passaged when they reached a density of approximately 3×10^6 cells/mL using cell scrapers (VWR, 10062-906) to lift cells from flask surface and resuspended at densities of approximately 500,000 cells/mL.
(§2) Nitric oxide production (Griess assay) and viability assay (CellTiter-Glo). 80 μL of mouse microglia culture (1×10^6 cells/mL) was plated into sterile 384 well plates representing non-activated wells. The remaining culture was activated with 50 ng/ml LPS (Invivogen, NC9836) and 150 U/mL IFNγ (R&D Systems, 485MI100) and distributed into the 384 well plates. […] Assay plates were incubated for approximately 24 hours (unless otherwise noted) at 37° C., centrifuged, and 40 μL of supernatant transferred to a new plate for analysis using the Griess Assay (Promega, Madison, WI). Absorbance at 530 nm was measured using a TECAN Infinite M1000 plate reader. The remaining 40 μL containing cells was analyzed for toxicity by the CellTiter-Glo Assay (Promega, Madison, WI). Luminescence was read using a TECAN Infinite M1000 plate reader.

DOR (δ opioid receptor) = target: T1, DOR (δ opioid receptor) (Homo sapiens, UniProt P41143); assay: DOR radioligand binding ([3H]-DADLE, HEK293 cell homogenates); conditions: Percent inhibition at 10,000 nM; [3H]-DADLE
T1 construct: expressed in transfected cells; host or cells: HEK293
T1 sequence (P41143 whole entry): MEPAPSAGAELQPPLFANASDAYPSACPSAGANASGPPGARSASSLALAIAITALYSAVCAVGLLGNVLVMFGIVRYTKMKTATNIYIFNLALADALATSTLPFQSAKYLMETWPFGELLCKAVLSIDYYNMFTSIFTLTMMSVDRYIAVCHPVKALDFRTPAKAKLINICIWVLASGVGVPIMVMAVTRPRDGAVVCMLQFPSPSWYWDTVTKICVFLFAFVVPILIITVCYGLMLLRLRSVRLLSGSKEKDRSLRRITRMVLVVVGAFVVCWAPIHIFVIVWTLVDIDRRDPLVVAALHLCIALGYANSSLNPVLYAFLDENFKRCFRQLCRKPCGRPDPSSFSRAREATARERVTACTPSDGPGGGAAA

[2] = tested on: BZR (benzodiazepine site of GABAAR); assay: GABAAR/BZR binding, rat brain homogenate with 3H-flunitrazepam; conditions: rat brain homogenate, 3H-flunitrazepam; for BZR %: Percent inhibition at 10,000 nM
In short: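 Primary screen at 10,000 nM; where displacement exceeded 50%, Ki came from nonlinear regression of concentration–response data (n=6). Radioligand was 3H-flunitrazepam at roughly Kd on rat brain homogenate, usually 90 min, room temperature, dark, with 10 μM reference compound for nonspecific binding, then filtration and scintillation counting.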

HEPG2 = assay: Viability assay (CellTiter-Glo), HEPG2; assay type: cell-based, human; conditions: 120 μM, CellTiter-Glo
Description: (§3) The screen identified several compounds that reduced NO in activated microglia and macrophages. The tested compounds included achiral and chiral imidazodiazepines and benzodiazepines. In general, microglia were more sensitive to compound treatment with more pronounced reduction of NO than macrophages. […] Cell viability assays with HEK293 (kidney) and HepG2 (liver) cells were conducted in a concentration dependent manner. A limited number of compounds, such as GL-III-63, GL-III-76A, and GL-III-77, were toxic at 120 μM.
(§4) Viability assay. Human liver hepatocellular carcinoma (HEPG2) and human embryonic kidney 293T (HEK293T) cell lines were purchased (ATCC) and cultured in 75 cm^2 flasks (CellStar). Cells were grown in DMEM/High Glucose (Hyclone, #SH3024301) media to which non-essential amino acids (Hyclone, #SH30238.01), 10 mM HEPES (Hyclone, #SH302237.01), 5×10^6 units of penicillin and streptomycin (Hyclone, #SV30010), and 10% of heat inactivated fetal bovine serum (Gibco, #10082147) were added. Cells were harvested using 0.05% Trypsin (Hyclone, #SH3023601), washed with PBS, and dispensed into sterile white, optical bottom 384-well plates (NUNC, #142762). After three hours, small molecule DMSO solutions were transferred with a Tecan Freedom EVO liquid handling system equipped with a 100 nL pin tool (V&P Scientific). The controls were 3-dibutylamino-1-(4-hexyl-phenyl)-propan-1-one (25 mM in DMSO, positive control) and DMSO (negative control). The cells were incubated for 48 hours followed by the addition of CellTiter-Glo™, a luminescence-based cell viability assay (Promega, Madison, WI). All luminescence readings were performed on a Tecan Infinite M1000 plate reader. The assay was carried out in quadruplet with two independent runs. The data were analyzed by nonlinear regression.

Mouse microglia [3] = assay: Cell viability (CellTiter-Glo), mouse microglia; assay type: cell-based; conditions: 50 μM, CellTiter-Glo
Description: as §1, §2

HEK293 = assay: Viability assay (CellTiter-Glo), HEK293; assay type: cell-based, human; conditions: 120 μM, CellTiter-Glo
Description: as §3, §4

KOR (κ opioid receptor) = target: T2, KOR (κ opioid receptor) (Homo sapiens, UniProt P41145); assay: KOR radioligand binding ([3H]-U69593, HEK293 cell homogenates)
T2 construct: expressed in transfected cells; host or cells: HEK293 (stably transfected)
T2 sequence (P41145 whole entry): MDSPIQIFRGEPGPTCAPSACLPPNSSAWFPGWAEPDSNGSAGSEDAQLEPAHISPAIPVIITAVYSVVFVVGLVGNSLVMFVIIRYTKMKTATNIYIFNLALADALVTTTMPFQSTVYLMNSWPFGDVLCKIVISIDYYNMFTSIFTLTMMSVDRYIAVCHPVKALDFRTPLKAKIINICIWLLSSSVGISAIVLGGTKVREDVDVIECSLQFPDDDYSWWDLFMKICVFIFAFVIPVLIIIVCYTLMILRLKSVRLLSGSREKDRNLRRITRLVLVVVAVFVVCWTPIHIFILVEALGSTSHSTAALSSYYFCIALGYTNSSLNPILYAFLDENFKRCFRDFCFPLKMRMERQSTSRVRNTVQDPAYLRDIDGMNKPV

MOR (μ opioid receptor) = target: T3, MOR (μ opioid receptor) (Homo sapiens, UniProt P35372); assay: MOR radioligand binding ([3H]-DAMGO, HEK293 cell homogenates)
T3 construct: expressed in transfected cells; host or cells: HEK293
T3 sequence (P35372 whole entry, species assumed): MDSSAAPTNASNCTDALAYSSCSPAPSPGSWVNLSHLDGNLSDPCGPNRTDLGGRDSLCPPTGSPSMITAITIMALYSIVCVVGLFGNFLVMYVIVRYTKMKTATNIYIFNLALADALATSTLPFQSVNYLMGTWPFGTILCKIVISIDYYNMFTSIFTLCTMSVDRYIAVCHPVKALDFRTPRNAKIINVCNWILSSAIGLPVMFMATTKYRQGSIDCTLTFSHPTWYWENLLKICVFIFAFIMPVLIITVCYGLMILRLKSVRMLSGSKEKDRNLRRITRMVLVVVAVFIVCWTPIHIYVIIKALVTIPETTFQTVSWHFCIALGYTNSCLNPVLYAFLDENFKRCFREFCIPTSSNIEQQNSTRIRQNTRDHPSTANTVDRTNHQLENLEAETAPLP

RAW macrophages [4] = assay: Cell viability (CellTiter-Glo), RAW macrophages; assay type: cell-based, mouse; conditions: CellTiter-Glo
RAW macrophages [5] = assay: NO production (Griess assay), LPS/IFNγ-activated RAW264.7 macrophages; assay type: cell-based, mouse
[6] = Percent inhibition at 10,000 nM, [3H]-U69593
[7] = Percent inhibition at 10,000 nM, [3H]-DAMGO
[8] = 10 μM, 24 hours, 1 μM GABA, LPS/IFNγ

Structure (SMILES)	Inhibition of NO production (%) Mouse microglia 50 μM (Mouse microglia [1]; 24 hours, 1 μM GABA, LPS/IFNγ)	BZR % [2]	Ki [2]	Cell viability (%) HEPG2 120 μM (HEPG2)	Cell viability (%) Mouse microglia 50 μM (Mouse microglia [3])	Cell viability (%) HEK293 120 μM (HEK293)	inhibition at 10 µM (DOR (δ opioid receptor))	inhibition at 10 µM (KOR (κ opioid receptor); [6])	inhibition at 10 µM (MOR (μ opioid receptor); [7])	Cell viability (%) RAW macrophages 50 μM (RAW macrophages [4])	also measured
C#Cc1ccc2c(c1)C(c1ccccn1)=NCc1c(-c3cnco3)ncn1-2 [KRM-II-81]	0 ± 1%	86%	294 nM	100 ± 12%	100 ± 5%	96 ± 11%	–	–	–	–	DOR % (DOR (δ opioid receptor)): 15%; KOR % (KOR (κ opioid receptor); [6]): 46%; MOR % (MOR (μ opioid receptor); [7]): 7%
Cc1noc(-c2ncn3c2[C@@H](C)N=C(c2ccccn2)c2cc(C4CC4)ccc2-3)n1 [GL-III-64]	–	92%	1490 nM	75 ± 10%	96 ± 10%	75 ± 8%	14%	60%	7%	–	inhibition at 50 µM (Mouse microglia [1]): 26 ± 10%; Ki (KOR (κ opioid receptor)): 2050 nM
C#Cc1ccc2c(c1)C(c1ccccn1)=N[C@H](C)c1c(-c3nc(CC)no3)ncn1-2 [GL-II-54]	–	66%	2040 nM	–	95 ± 3%	–	0%	80%	0%	100 ± 8%	inhibition at 50 µM (Mouse microglia [1]): 0%; Ki (KOR (κ opioid receptor)): 504 nM
C#Cc1ccc2c(c1)C(c1ccccn1)=N[C@H](C)c1c(C(=O)OC)ncn1-2 [GL-II-32]	–	63%	1430 nM	–	95 ± 8%	80 ± 6%	0%	35%	32%	100 ± 4%	inhibition at 10 µM (Mouse microglia [1]): 7 ± 2%; inhibition at 10 µM (RAW macrophages [5]; Mus musculus, Macrophage, 24 h): 6 ± 3%
C#Cc1ccc2c(c1)C(c1ccccc1F)=N[C@@H](C)c1c(-c3nc(C(C)C)no3)ncn1-2 [GL-I-81, (S)-5-(8-Ethynyl-6-(2-fluorophenyl)-4-methyl-4H-benzo[f]imidazo[1,5-a][1,4]diazepin-3-yl)-3-isopropyl-1,2,4-oxadiazole]	–	83%	839 nM	–	94 ± 10%	–	25%	93%	64%	91 ± 7%	inhibition at 10 µM (Mouse microglia [1]): 64 ± 9%; inhibition at 50 µM (Mouse microglia [1]): 87 ± 2%; inhibition at 10 µM (RAW macrophages [5]; Mus musculus, Macrophage, 24 h): 0%; inhibition at 50 µM (RAW macrophages [5]; Mus musculus, Macrophage, 24 h): 6 ± 2%; Ki (KOR (κ opioid receptor)): 127 nM; Ki (MOR (μ opioid receptor)): 2920 nM
C#Cc1ccc2c(c1)C(c1ccccn1)=NCC(=O)N2 [GL-III-58]	–	–	–	100 ± 5%	83 ± 4%	89 ± 2%	–	–	–	100 ± 14%	Inhibition of NO production (%) Mouse microglia 10 μM (Mouse microglia [1]; [8]): 48 ± 4%
C#Cc1ccc2c(c1)C(c1ccccc1F)=NCc1c(-c3nc(C)no3)ncn1-2 [GL-III-23]	28 ± 5%	–	–	90 ± 13%	100 ± 2%	65 ± 5%	–	–	–	–	–
C#Cc1ccc2c(c1)C(c1ccccc1)=NCc1c(C(=O)NC)ncn1-2 [YT-III-31]	0 ± 2%	–	–	100 ± 7%	100 ± 8%	96 ± 10%	–	–	–	–	–
C#Cc1ccc2c(c1)C(c1ccccn1)=NC(C)c1c(-c3nc(C)no3)ncn1-2 (centres unmarked) [GL-II-33]	0 ± 3%	–	–	–	100 ± 4%	–	–	–	–	100 ± 7%	NO production of activated microglia (in words) (Mouse microglia [1]; dexamethasone 100 nM, GABA 1 μM, MP-IV-010 50 μM, GL-II-33 in the library screen): did not reduce NO production
C#Cc1ccc2c(c1)C(c1ccccn1)=N[C@H](C)c1c(C(=O)OCC)ncn1-2 [GL-II-19]	–	71%	1140 nM	100 ± 9%	100 ± 11%	90 ± 5%	2%	44%	17%	–	inhibition at 10 µM (Mouse microglia [1]): 32 ± 4%; inhibition at 10 µM (RAW macrophages [5]; Mus musculus, Macrophage, 24 h): 2 ± 2%
C#Cc1ccc2c(c1)C(c1ccccn1)=NCc1c(C(=O)O)ncn1-2 [GL-III-13]	–	–	–	100 ± 10%	92 ± 9%	74 ± 5%	–	–	–	100 ± 9%	Inhibition of NO production (%) RAW macrophages 10 μM (RAW macrophages [5]; [8]): 0 ± 2%
